Test results from ChEMBL document CHEMBL1133808, “The discovery of sulfonylated dipeptides as potent VLA-4 antagonists” (Bioorg Med Chem Lett, 2001).
Starred links: 1 amine or outer side, 2 acyl side, 3 side chain; linkers in the order of their positions; H or OH if unused. Non-standard residues stand in square brackets, D forms with d. Residues, ends and D or L forms follow the SMILES beside them. *: point of attachment. X1 = O=C(Cc1ccc(N[*:1])cc1)[*:2]; NH(2-Me-phenyl) = Cc1ccccc1N*; CO = O=C([*:1])[*:2]

Columns and labels:
Integrin alpha-4/beta-1 = Integrin alpha-4/beta-1 (Homo sapiens, UniProt P05556+P13612); experiment: Antagonistic activity against VLA-4 integrin of human jurkat cells using [125I]VCAM-Ig as radioligand; assay type: functional, cell-based
Chain of Integrin alpha-4/beta-1 (P05556 whole entry, one chain of several): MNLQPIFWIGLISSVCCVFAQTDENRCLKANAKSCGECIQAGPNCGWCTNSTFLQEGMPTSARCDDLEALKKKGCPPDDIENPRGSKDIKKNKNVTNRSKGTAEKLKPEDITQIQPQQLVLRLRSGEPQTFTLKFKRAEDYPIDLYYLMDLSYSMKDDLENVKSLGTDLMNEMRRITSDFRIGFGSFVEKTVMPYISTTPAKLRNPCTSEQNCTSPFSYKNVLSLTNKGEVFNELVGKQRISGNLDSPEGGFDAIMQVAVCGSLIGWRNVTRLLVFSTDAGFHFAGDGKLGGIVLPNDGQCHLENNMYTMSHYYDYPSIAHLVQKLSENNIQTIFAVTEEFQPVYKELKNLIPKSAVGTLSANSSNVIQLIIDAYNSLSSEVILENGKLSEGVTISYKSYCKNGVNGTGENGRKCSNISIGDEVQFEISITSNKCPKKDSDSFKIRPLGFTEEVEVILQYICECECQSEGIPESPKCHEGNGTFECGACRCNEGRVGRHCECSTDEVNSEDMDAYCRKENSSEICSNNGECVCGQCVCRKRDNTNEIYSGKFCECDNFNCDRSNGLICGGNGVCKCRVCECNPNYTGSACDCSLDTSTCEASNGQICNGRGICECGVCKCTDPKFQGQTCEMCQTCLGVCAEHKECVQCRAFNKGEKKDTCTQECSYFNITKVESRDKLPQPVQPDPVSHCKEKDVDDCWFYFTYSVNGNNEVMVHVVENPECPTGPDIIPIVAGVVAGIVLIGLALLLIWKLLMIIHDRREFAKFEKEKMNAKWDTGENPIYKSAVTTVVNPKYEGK

Integrin alpha-4/beta-7 [1] = molecular target: T1, Integrin alpha-4/beta-7 (Homo sapiens, UniProt P13612+P26010); experiment: Inhibition of [125I]VCAM-Ig binding to alpha4-beta7 integrin of human RPMI-8866 cells; assay type: cell-based
T1 sequence (P13612 whole entry): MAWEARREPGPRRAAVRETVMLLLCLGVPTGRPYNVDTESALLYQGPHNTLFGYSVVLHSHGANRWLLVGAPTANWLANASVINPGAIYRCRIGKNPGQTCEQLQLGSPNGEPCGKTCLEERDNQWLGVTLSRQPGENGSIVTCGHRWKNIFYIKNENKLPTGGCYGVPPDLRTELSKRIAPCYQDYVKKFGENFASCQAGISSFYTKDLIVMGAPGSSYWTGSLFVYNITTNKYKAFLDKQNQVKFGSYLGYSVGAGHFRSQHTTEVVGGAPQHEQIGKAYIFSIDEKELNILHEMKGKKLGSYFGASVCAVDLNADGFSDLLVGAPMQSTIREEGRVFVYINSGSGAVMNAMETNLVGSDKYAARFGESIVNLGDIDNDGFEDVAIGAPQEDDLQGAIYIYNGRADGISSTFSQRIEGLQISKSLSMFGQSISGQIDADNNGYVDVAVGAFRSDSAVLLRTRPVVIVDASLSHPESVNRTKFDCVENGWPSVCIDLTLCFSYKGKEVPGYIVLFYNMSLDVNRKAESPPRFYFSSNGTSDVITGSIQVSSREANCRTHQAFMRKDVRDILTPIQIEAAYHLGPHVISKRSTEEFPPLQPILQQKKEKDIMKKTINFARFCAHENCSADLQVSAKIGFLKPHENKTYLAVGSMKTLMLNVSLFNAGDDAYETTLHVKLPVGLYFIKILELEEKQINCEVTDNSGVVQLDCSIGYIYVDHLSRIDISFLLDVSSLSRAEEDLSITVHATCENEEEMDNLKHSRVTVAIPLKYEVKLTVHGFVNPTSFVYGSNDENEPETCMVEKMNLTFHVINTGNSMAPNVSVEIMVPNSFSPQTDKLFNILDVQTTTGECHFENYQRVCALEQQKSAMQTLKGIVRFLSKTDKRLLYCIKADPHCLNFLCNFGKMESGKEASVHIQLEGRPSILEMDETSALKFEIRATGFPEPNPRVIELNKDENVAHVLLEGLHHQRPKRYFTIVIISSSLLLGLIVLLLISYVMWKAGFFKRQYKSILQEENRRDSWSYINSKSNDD
T1 sequence (P26010 whole entry): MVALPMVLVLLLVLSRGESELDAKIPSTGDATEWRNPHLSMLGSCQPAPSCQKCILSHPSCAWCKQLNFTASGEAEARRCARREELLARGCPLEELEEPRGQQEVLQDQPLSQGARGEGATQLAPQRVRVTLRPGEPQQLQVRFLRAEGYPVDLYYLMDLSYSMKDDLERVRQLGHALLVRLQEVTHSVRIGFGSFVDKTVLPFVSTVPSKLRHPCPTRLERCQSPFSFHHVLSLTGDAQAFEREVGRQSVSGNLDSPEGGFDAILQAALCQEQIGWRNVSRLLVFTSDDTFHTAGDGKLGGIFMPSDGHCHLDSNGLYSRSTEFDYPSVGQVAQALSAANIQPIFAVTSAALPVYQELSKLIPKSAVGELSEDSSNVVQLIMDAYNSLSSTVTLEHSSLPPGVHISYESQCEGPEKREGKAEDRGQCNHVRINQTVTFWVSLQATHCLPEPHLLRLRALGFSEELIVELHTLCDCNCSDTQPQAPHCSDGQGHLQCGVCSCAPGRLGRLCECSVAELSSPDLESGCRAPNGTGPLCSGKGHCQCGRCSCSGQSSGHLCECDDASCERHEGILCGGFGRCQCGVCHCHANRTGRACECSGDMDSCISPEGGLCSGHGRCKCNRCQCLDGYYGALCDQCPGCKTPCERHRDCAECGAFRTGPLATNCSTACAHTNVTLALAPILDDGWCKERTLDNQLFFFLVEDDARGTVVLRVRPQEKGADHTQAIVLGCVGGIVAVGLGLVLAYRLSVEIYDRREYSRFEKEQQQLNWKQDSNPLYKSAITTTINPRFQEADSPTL

Integrin alpha-4/beta-7 [2] = molecular target: T1, Integrin alpha-4/beta-7; experiment: Inhibition of [125I]MAdCAM-Ig binding to alpha4-beta7 integrin of human RPMI-8866 cells; assay type: cell-based
[3] = Plasma clearance in Sprague-Dawley rats; assay type: ADME, organism-based; conditions: rat, read-out: Clp

| Compound | IC50 (Integrin alpha-4/beta-1) | IC50 (Integrin alpha-4/beta-7 [1]) | IC50 (Integrin alpha-4/beta-7 [2]) | clearance [3] |
| --- | --- | --- | --- | --- |
| C[C@@]1(C(=O)N[C@@H](Cc2ccc(-c3ccccc3S(C)(=O)=O)cc2)C(=O)O)CCCN1S(=O)(=O)c1cc(Cl)cc(Cl)c1 | 0.16 nM | 13.2 nM | – | – |
| O=Cc1cccc(-c2ccc(C[C@H](NC(=O)[C@@H]3CCCN3S(=O)(=O)c3cc(Cl)cc(Cl)c3)C(=O)O)cc2)c1 | 0.23 nM | – | – | – |
| N#Cc1cccc(-c2ccc(C[C@H](NC(=O)[C@@H]3CCCN3S(=O)(=O)c3cc(Cl)cc(Cl)c3)C(=O)O)cc2)c1 | 0.39 nM | – | – | – |
| C[C@@]1(C(=O)N[C@@H](Cc2ccc(-c3ncccc3C#N)cc2)C(=O)O)CCCN1S(=O)(=O)c1cc(Cl)cc(Cl)c1 | 0.14 nM | – | – | – |
| C[C@@]1(C(=O)N[C@@H](Cc2ccc(-c3cccc(C#N)c3)cc2)C(=O)O)CCCN1S(=O)(=O)c1cc(Cl)cc(Cl)c1 | 1.12 nM | 1140 nM | – | – |
| CN(C)C(=O)c1ccccc1-c1ccc(C[C@H](NC(=O)[C@]2(C)CCCN2S(=O)(=O)c2cc(Cl)cc(Cl)c2)C(=O)O)cc1 | 0.22 nM | 82.7 nM | – | – |
| C[C@@]1(C(=O)N[C@@H](Cc2ccc(-c3nc[nH]n3)cc2)C(=O)O)CCCN1S(=O)(=O)c1cc(Cl)cc(Cl)c1 | 0.52 nM | – | 949 nM | – |
| O=Cc1ccccc1-c1ccc(C[C@H](NC(=O)[C@@H]2CCCN2S(=O)(=O)c2cc(Cl)cc(Cl)c2)C(=O)O)cc1 | 0.22 nM | – | – | – |
| Cc1ccccc1-c1ccc(C[C@H](NC(=O)[C@@H]2CCCN2S(=O)(=O)c2cc(Cl)cc(Cl)c2)C(=O)O)cc1 | 1.43 nM | – | – | – |
| COc1ccc(S(=O)(=O)N2Cc3ccccc3C[C@H]2C(=O)N[C@@H](Cc2ccc3ccccc3c2)C(=O)O)cc1OC | 7 nM | – | – | – |
| CCCC[C@H](NC(=O)[C@@H]1Cc2ccccc2CN1S(=O)(=O)c1cc(Cl)cc(Cl)c1)C(=O)O | 10 nM | – | – | – |
| COc1cccc(OC)c1-c1ccc(C[C@H](NC(=O)[C@@H]2CCCN2S(=O)(=O)c2cc(Cl)cc(Cl)c2)C(=O)O)cc1 | 0.09 nM | – | – | – |
| C[C@@]1(C(=O)N[C@@H](Cc2ccc(-c3cccc4cc[nH]c34)cc2)C(=O)O)CCCN1S(=O)(=O)c1cc(Cl)cc(Cl)c1 | 1.33 nM | 5720 nM | – | – |
| C[C@@]1(C(=O)N[C@@H](Cc2ccc(-c3c(O)cccc3O)cc2)C(=O)O)CCCN1S(=O)(=O)c1cc(Cl)cc(Cl)c1 | 0.5 nM | – | 670 nM | – |
| CC(C)C(=O)Oc1cccc(OC(=O)C(C)C)c1-c1ccc(C[C@H](NC(=O)[C@]2(C)CCCN2S(=O)(=O)c2cc(Cl)cc(Cl)c2)C(=O)O)cc1 | 4.5 nM | – | 3550 nM | – |
| CCCC[C@H](NC(=O)[C@@H]1CCCN1S(=O)(=O)c1ccc(OC)c(OC)c1)C(=O)O | 45 nM | – | – | – |
| O=Cc1ccc(-c2ccc(C[C@H](NC(=O)[C@@H]3CCCN3S(=O)(=O)c3cc(Cl)cc(Cl)c3)C(=O)O)cc2)cc1 | 0.38 nM | – | – | – |
| O=C(O)[C@H](Cc1ccc(-c2ccc(F)cc2)cc1)NC(=O)[C@@H]1CCCN1S(=O)(=O)c1cc(Cl)cc(Cl)c1 | 0.9 nM | – | – | – |
| CN(C)C(=O)c1ccccc1-c1ccc(C[C@H](NC(=O)[C@@H]2CCCN2S(=O)(=O)c2cc(Cl)cc(Cl)c2)C(=O)O)cc1 | 0.13 nM | – | – | – |
| C[C@@]1(C(=O)N[C@@H](Cc2ccc(-c3ccccc3Cl)cc2)C(=O)O)CCCN1S(=O)(=O)c1cc(Cl)cc(Cl)c1 | 192 nM | 2260 nM | – | – |

| Compound | IC50 (Integrin alpha-4/beta-1) | IC50 (Integrin alpha-4/beta-7 [1]) | IC50 (Integrin alpha-4/beta-7 [2]) | clearance [3] |
| --- | --- | --- | --- | --- |
| CSc1ccccc1-c1ccc(C[C@H](NC(=O)[C@@H]2CCCN2S(=O)(=O)c2cc(Cl)cc(Cl)c2)C(=O)O)cc1 | 0.36 nM | – | – | – |
| NC(=O)c1ccccc1-c1ccc(C[C@H](NC(=O)[C@@H]2CCCN2S(=O)(=O)c2cc(Cl)cc(Cl)c2)C(=O)O)cc1 | 0.09 nM | – | – | – |
| C[C@@]1(C(=O)N[C@@H](Cc2ccc(-c3nccs3)cc2)C(=O)O)CCCN1S(=O)(=O)c1cc(Cl)cc(Cl)c1 | 0.24 nM | 413 nM | – | – |
| C[C@@]1(C(=O)N[C@@H](Cc2ccc(-c3cccnc3)cc2)C(=O)O)CCCN1S(=O)(=O)c1cc(Cl)cc(Cl)c1 | 0.35 nM | 311 nM | – | – |
| Cc1ccc(-c2ccc(C[C@H](NC(=O)[C@@H]3CCCN3S(=O)(=O)c3cc(Cl)cc(Cl)c3)C(=O)O)cc2)cc1 | 1.53 nM | – | – | – |
| C[C@@]1(C(=O)N[C@@H](Cc2ccc(-c3ccccc3F)cc2)C(=O)O)CCCN1S(=O)(=O)c1cc(Cl)cc(Cl)c1 | 2.4 nM | > 4000 nM | – | – |
| COc1ccc(S(=O)(=O)N2Cc3ccccc3C[C@H]2C(=O)N[C@@H](CCCNC(=N)N)C(=O)O)cc1OC | 360 nM | – | – | – |
| COC(=O)c1cccc(-c2ccc(C[C@H](NC(=O)[C@@H]3CCCN3S(=O)(=O)c3cc(Cl)cc(Cl)c3)C(=O)O)cc2)c1 | 0.4 nM | – | – | – |
| O=C(O)[C@H](Cc1ccc(-c2ccccc2)cc1)NC(=O)[C@@H]1CCCN1S(=O)(=O)c1cc(Cl)cc(Cl)c1 | 0.63 nM | – | – | – |
| Cc1ccccc1NC(=O)Nc1ccc(CC(=O)N[C@@H](CC(C)C)C(=O)N[C@@H](CC(=O)O)C(=O)N[C@H](C(=O)N2CCC[C@H]2C(=O)O)C(C)C)cc1 ({NH(2-Me-phenyl)-CO}-[X1]LDVP-OH) | – | 433 nM | 862 nM | – |
| C[C@@]1(C(=O)N[C@@H](Cc2ccc(-c3cc(C#N)ccc3F)cc2)C(=O)O)CCCN1S(=O)(=O)c1cc(Cl)cc(Cl)c1 | 1.01 nM | 1240 nM | – | – |
| CS(=O)(=O)c1ccccc1-c1ccc(C[C@H](NC(=O)[C@@H]2CCCN2S(=O)(=O)c2cc(Cl)cc(Cl)c2)C(=O)O)cc1 | 0.1 nM | – | – | – |
| CSc1ccccc1-c1ccc(C[C@H](NC(=O)[C@]2(C)CCCN2S(=O)(=O)c2cc(Cl)cc(Cl)c2)C(=O)O)cc1 | 0.65 nM | 78.2 nM | – | – |
| CNC(=O)c1ccccc1-c1ccc(C[C@H](NC(=O)[C@@H]2CCCN2S(=O)(=O)c2cc(Cl)cc(Cl)c2)C(=O)O)cc1 | 0.1 nM | – | – | – |
| O=C(O)c1cccc(-c2ccc(C[C@H](NC(=O)[C@@H]3CCCN3S(=O)(=O)c3cc(Cl)cc(Cl)c3)C(=O)O)cc2)c1 | 0.54 nM | – | – | – |
| COc1ccccc1-c1ccc(C[C@H](NC(=O)[C@]2(C)CCCN2S(=O)(=O)c2cc(Cl)cc(Cl)c2)C(=O)O)cc1 | 0.52 nM | 242 nM | – | 20 mL/min/kg |
| O=C(O)[C@H](Cc1ccc(-c2ccccc2F)cc1)NC(=O)[C@@H]1CCCN1S(=O)(=O)c1cc(Cl)cc(Cl)c1 | 1.02 nM | – | – | – |
| O=C(O)c1ccccc1-c1ccc(C[C@H](NC(=O)[C@@H]2CCCN2S(=O)(=O)c2cc(Cl)cc(Cl)c2)C(=O)O)cc1 | 0.95 nM | – | – | – |
| COC(=O)c1ccccc1-c1ccc(C[C@H](NC(=O)[C@@H]2CCCN2S(=O)(=O)c2cc(Cl)cc(Cl)c2)C(=O)O)cc1 | 0.15 nM | – | – | – |
| COc1cccc(C#N)c1-c1ccc(C[C@H](NC(=O)[C@]2(C)CCCN2S(=O)(=O)c2cc(Cl)cc(Cl)c2)C(=O)O)cc1 | 0.28 nM | – | 77 nM | – |
